Counter-ions that a name gives are not always drawn.
Assay: Stability Test under accelerated condition (solid in amber glass vials, impurities by HPLC)
Type: physicochemical
Protocol: Stability of the mesylate salt of the present invention was evaluated under accelerated condition. About 5 mg of the mesylate salt of the present invention were introduced in individual 10 ml amber glass vials. These vials were stored at 40° C. during 30 days and at 80° C. during 15 and 30 days, respectively. After the forced stress conditions, samples were dissolved in 5 ml of the appropriate solvent. Impurities increase was determined using HPLC analysis and by calculating the relative areas.

- HPLC Impurities (% area) (Stability @ 40° C. 30 days): 2.4%
- HPLC Impurities (% area) (Stability @ 80° C. 15 days): 3.10%
- HPLC Impurities (% area) (Stability @ 80° C. 30 days): 3.8%
- percentage of impurities observed (all forced conditions (40° C. 30 days, 80° C. 15 and 30 days)): less than 5%
SMILES: O=c1ccc2c([C@@H](O)CNCCCCCCOCC(F)(F)c3ccccc3)ccc(O)c2[nH]1 [5-(2-{[6-(2,2-difluoro-2-phenylethoxy)hexyl]amino}-1(R)-hydroxy-ethyl)-8-hydroxyquinolin-2(1H)-one mesylate]

From patent US8563731B2, “Mesylate salt of 5-(2-{[6-(2,2-difluoro-2-phenylethoxy)hexyl]jamino}-1-hydroxyethyl)-8-hydroxyquinolin-2(1H)-one as agonist of the β2 adrenergic receptor” (Almirall, S.A., priority 2008, dated 2013)
